Reference: patent US20050026957A1, “Methods of treating nodulocystic acne” (Allergan, Inc., priority 2003, published 2005)

Assays:
[1] = oral, cited from earlier work; for impact of food on bioavailability: literature
sebaceous glands = details: severe acne; published reports (Geiger); cited from earlier work
[2] = in vivo; cited from earlier work
patients = assay: Two placebo-controlled 24-week safety studies of oral tazarotene plus dose-response evaluations; format: in vivo, human; details: 4.5 mg orally once daily; two safety trials; placebo 17%
Experimental: Two multicenter, double-blind, randomized, placebo-controlled 24-week studies of identical design are conducted to evaluate the safety of oral tazarotene. In addition, 16- to 24-week dose-response evaluations are performed.
In the two safety trials, the incidence of adverse side effects with a 4.5 mg dose administered orally once daily is compared to the incidence of the same side effects with a placebo. […] The majority of these were mild in severity and typical of adverse effects associated with oral retinoids.

sebum secretion = assay: Sebum output by Sebutape patches in the nodulocystic acne study; format: in vivo, human; details: oral 0.75 to 6 mg once daily; up to 86 patients
Experimental: (§1) Sebum output is assessed every 4 weeks at selected centers using the Sebutape® patches, sold by Cuderm Corporation. Urinalysis, chemistry, and hematology values are monitored. Bone formation and resorption assessments (serum bone alkaline phosphatase and serum amino terminal telopeptides, respectively) at selected centers are monitored.
Sebum secretion output is assessed in a maximum of 86 patients (with successively fewer patients at each timepoint—e.g., 60 patients at week 24, 46 patients at week 36). Importantly, there is no consistent statistically significant differences in sebum production across treatment groups using the Sebutape® method of assessment.

severe nodulocystic acne = assay: Double-blind, randomized, placebo-controlled study of oral tazarotene in severe nodulocystic acne; format: in vivo, human
Text: A multicenter, double-blind, randomized, placebo-controlled parallel-group study is undertaken to determine the efficacy of orally administered tazarotene in treating severe nodulocystic acne.
In addition, washout periods for other medications for this study are: 1 week for vitamin A supplements >5000 IU; 2 weeks for topical anti-acne medications (e.g., retinoids, azelaic acid, benzoyl peroxide); 2 weeks for topical or systemic antibiotic therapy that may alter the course of acne; and 6 months for systemic retinoids.
Patients are randomized to receive placebo or oral tazarotene (0.75, 1.5, 3, or 6 mg), in a 1:1:1:1:1 ratio once daily for 24 weeks. After this, the patients are followed without treatment for an additional 12 weeks. Patients discontinuing from the treatment period due to adverse effects or lack of efficacy are eligible for entry into the post-treatment phase.
In the study, overall acne severity is rated as: none (no inflammatory acne lesions); mild (few to several papules or pustules, no nodulocystic lesions); moderate (several to many papules or pustules, few to several nodulocystic lesions); and severe (numerous or extensive papules or pustules, many, for example, at least about 5 or at least about 10, nodulocystic lesions). […]
as §1
Bone mineral density of spine and proximal femur at selected centers is monitored. Ligament calcification or osteophyte formation (lateral X-ray of the cervical and thoracic spine, and ankle calcaneous) is monitored. Epiphyseal growth plate closure (internal oblique X-ray of the ankle in patients less than or equal to 21 years old) is monitored.

[3] = system: patients treated for acne; assay: Adverse event monitoring in studies of orally administered tazarotene for acne (Table 2); format: in vivo, human; details: combined data from Studies 1 and 2 (N = 223)
Experimental: Studies are conducted on orally administered tazarotene for the treatment of acne. Adverse events (side effects) are monitored.

severe psoriasis = assay: Patient with severe psoriasis on Ortho-Novum treated with tazarotene; format: in vivo, human; details: 6 mg per day; after 30 days
Text: The patient presents symptoms of severe psoriasis. The symptoms include lesions approximately 4 to 10 centimeters across appearing as raised patches of wine red skin many of which are covered in silvery white scales. The lesions are mostly dry and rough, and quite often noticeably warm to the touch. The lesions are present on the elbows, knees, scalp, and groin area. The patient experiences intense burning and itching associated with the lesions.
The patient is currently taking Ortho-Novum® for contraception.
Tazarotene at a dose of 6 mg per day is prescribed.

[4] = system: patients having nodulocystic acne; assay: Two placebo-controlled dose-ranging safety studies of oral tazarotene in nodulocystic acne; format: in vivo, human; details: for cheilitis: treatment period; for Emotional lability: all cases mild
Experimental: Two placebo-controlled dose-ranging studies are conducted to evaluate the safety of oral tazarotene in patients having nodulocystic acne. In the first study, patients receive orally administered tazarotene at daily doses of 0.4 mg to 2.8 mg in 96 (71+25) patients (12 weeks treatment plus 12 weeks post-treatment). In the second study, daily doses of 0.75 mg to 6 mg tazarotene are administered to 181 patients (24 weeks treatment plus 12 weeks post-treatment).

[5] = topical administration of tazarotene; 'often well less than'; cited from earlier work
[6] = PK and PD interaction studies of oral tazarotene with oral contraceptives; format: in vivo, human; details: tazarotene 1.1 mg or 6 mg daily with NE/EE or NGM/EE
Experimental: It is the objective of this study to determine if there are pharmacokinetic (PK) and pharmacodynamic (PD) interactions between tazarotene and commonly prescribed oral contraceptives (OCs) when coadministered together.
Three separate clinical studies are conducted to evaluate the PK and PD interactions of oral tazarotene and OCs in healthy volunteers. Two studies evaluate daily doses of norethindrone (NE)/ethinyl estradiol (EE) with daily doses of tazarotene 1.1 mg (N=27) and 6 mg (N=29). The third study assesses the daily doses of norgestimate (NGM)/EE with daily doses of tazarotene 6 mg (N=26). OCs are administered for three consecutive menstrual cycles. Daily doses of tazarotene are started during the 2nd cycle and continued through the end of the studies. PK parameters for EE, NE, and NGM (AUC0-24 and Cmax) are determined before tazarotene dosing and after tazarotene dosing on day 6 of the 2nd and 3rd cycles. Serum concentrations of luteinizing hormone (LH) and follicle-stimulating hormone (FSH)-markers of contraceptive efficacy are also evaluated before tazarotene dosing and after tazarotene dosing on days 2, 4, and 6 of the 2nd and 3rd cycles. Serum progesterone levels are assessed on days 18 and 20 of the 2nd and 3rd cycles. […]

[7] = Food effect on pharmacokinetics of tazarotenic acid after oral tazarotene (high-fat meal vs fast); format: in vivo, human; details: 6.3 mg oral tazarotene, healthy subjects; for average ratio of Cmax values (test/reference): high-fat meal vs 8-10 hour fast
Experimental: For the purposes of this application, the bioavailability of a drug may be based on the human pharmokinetic parameters of maximum blood concentration (Cmax) and Area under the blood concentration-time curve (AUC).
The LC-MS/MS test for simultaneous detection of tazarotene and tazarotenic acid may be run as follows. One ml of plasma (EDTA-treated) is diluted with 1.0 ml of water. Diluted plasma is extracted using solid phase extraction (SPE) on a C18 cartridge. The eluate is evaporated, reconstituted in a water/methanol-based mobile phase, and injected onto a 4.6×50 mm, 3 μm pore size C-8 reverse phase high pressure liquid chromatography (HPLC) column (Agilent, Wilmington, Del.). Compounds are gradient-eluted at 1.2 mL/min and detected using an API 3000 triple quadrupole mass spectrometer with an Atmospheric Pressure Chemical Ionization (APCI) source (PE-Sciex, Concord, Ontario, Canada). Molecular reaction monitoring enhances the sensitivity and selectivity of this assay by collisionally dissociating the protonated molecules for the analyte and an internal standard thereby forming the product ions. The specific precursor-product ion pair monitored are m/z 352→324 for tazarotene, m/z 359→331 for the tazarotene internal standard, m/z 324→294 for tazarotenic acid, and m/z 331+298 for the tazarotenic acid internal standard. The lower limit of quantitation at assay range tested is 0.1 ng/mL, with a coefficient of variation and deviation from nominal concentration of <15%.

In the case of `COc1cc(C)c(/C=C/C(C)=C/C=C/C(C)=C/C(=O)O)c(C)c1C` [Acitretin, acitretin], the “impact of food on bioavailability” value [1] is listed as “bioavailability is increased in the presence of food”.

For `CC1=C(/C=C/C(C)=C/C=C/C(C)=C\C(=O)O)C(C)(C)CCC1` [Isotretinoin, isotretinoin], the “total dose needed to reach the same peak blood concentration in the fasted state vs following a high fat meal” value [1] is listed as “more than doubled”, the “impact of food on bioavailability” value [1] is listed as “bioavailability is increased in the presence of food” and the “decrease in sebum secretion rate” value (sebaceous glands) is listed as “about 90%”. The “effect on coadministered contraceptive tablets” value [2] was “decreases blood concentrations of both ethinyl estradiol and norethindrone”.

In the case of `C=C(c1ccc(C(=O)O)cc1)c1cc2c(cc1C)C(C)(C)CCC2(C)C` [bexarotene], the “impact of food on bioavailability” value [1] is given as “bioavailability is increased in the presence of food”.

For `CCOC(=O)c1ccc(C#Cc2ccc3c(c2)C(C)(C)CCS3)nc1` [tazarotene], the incidence of cheilitis (patients) was 66%, the “effect on sebum secretion (Sebutape method)” value (sebum secretion) was “does not substantially reduce sebum secretion relative to placebo” and the “incidence of treatment success (≧50% global improvement) vs placebo” value (severe nodulocystic acne; 3 mg and 6 mg, week 24 and throughout post-treatment phase, p≦0.05) was “significantly higher”. For the same compound, the “reduction of overall acne severity” value (severe nodulocystic acne; 6 mg, week 16 until end of post-treatment phase, p≦0.01) was “significantly more than placebo”, the “abnormalities in liver function test results or elevated triglycerides, total cholesterol, or HDL cholesterol” value (severe nodulocystic acne; oral 0.75 to 6 mg once daily) was “not generally associated” and the Conjunctivitis [3] was 0 (0.0) NUMBER OF (%) OF PATIENTS. For the same compound, the Irritation of eyes [3] was 0 (0.0) NUMBER OF (%) OF PATIENTS, the “psoriasis symptoms and lesions” value (severe psoriasis) was “symptoms of itching and burning are relieved” and the joint disorder ([4]; 2.8 mg, n=11, placebo 0%) was 27%. The arthralgia ([4]; 2.8 mg, n=11, placebo 6%) was 9%, the myalgia ([4]; 2.8 mg, n=11, placebo 9%) was 0% and the asthenia ([4]; 2.8 mg, n=11, placebo 13%) was 0%. For the same compound, the dry skin ([4]; 2.8 mg, n=11, placebo 19%) was 18%, the headache ([4]; 2.8 mg, n=11, placebo 28%) was 9% and the cheilitis ([4]; 2.8 mg, n=11, placebo 31%) was 64%. The Emotional lability ([4]; 3 mg group, placebo 2 (4%)) was 1 (3%) patient (%), the arthralgia ([4]; 3 mg, n=37) was 8% and the asthenia ([4]; 3 mg, n=37) was 19%. It also gave a dry skin ([4]; 3 mg, n=37) of 35%, a headache ([4]; 3 mg, n=37) of 19% and a joint disorder ([4]; 3 mg, n=37) of 14%. The myalgia ([4]; 3 mg, n=37) was 16%, the cheilitis ([4]; 3 mg, n=37) was 78% and the Depression ([4]; 6 mg group) was “none”. For the same compound, the Emotional lability ([4]; 6 mg group) was 5 (14%) patient (%), the arthralgia ([4]; 6 mg, n=36) was 28% and the asthenia ([4]; 6 mg, n=36) was 19%. For the same compound, the dry skin ([4]; 6 mg, n=36) was 50%, the headache ([4]; 6 mg, n=36) was 36% and the joint disorder ([4]; 6 mg, n=36) was 19%. For the same compound, the myalgia ([4]; 6 mg, n=36) was 25%, the cheilitis ([4]; 6 mg, n=36) was 94% and the “changes in urinalysis, chemistry, or hematology measures (incl. liver function tests, triglycerides, total cholesterol, HDL cholesterol)” value ([4]; 0.4 to 6 mg daily) was “no consistent dose-related clinically significant changes”. The “patients withdrawing from either study due to adverse events” value ([4]; 7/277, all groups of both studies incl. placebo) was 2.5%.

For `CC1(C)CCSc2ccc(C#Cc3ccc(C(=O)O)cn3)cc21` [tazarotenic acid], the maximum blood concentration [5] is listed as “less than 30 ng/ml”, the “90% confidence intervals of AUC0-24 and Cmax for EE, NE, and NGM” value [6] is listed as “within the 80-125% boundary” and the “effect of high-fat meal on bioavailability or pharmacokinetics” value ([7]; single and multiple dose) is listed as “does not substantially affect”. For the same compound, the “average ratio of Cmax values (test/reference)” value ([7]; Day 0) was 1.00 and the “average ratio of Cmax values (test/reference)” value ([7]; Day 9) was 0.829.
